SMILES strings stand for the structures.

Our source for the EC50 values is patent US9365523B2, “Imidazolyl amide compounds and uses related thereto” (priority 2011, dated 2016).

In test [1] the test system is MeV-Alaska. Description: Viral CPE-reduction assay. The settings on record: Measles morbillivirus, read-out: EC50, suppression of viral cytopathic effect (CPE), CPE. On the technique in general: Cytopathic effects are the visible damage that an infection or toxin causes in cultured cells.
Procedure: To rapidly pre-screen small libraries of compound analogs for antiviral activity, Vero-SLAM cells were infected with MeV-Alaska in four replicates per compound concentration in a 96-well plate format at an MOI of 0.4 pfu/cell in the presence of the inhibitor analyzed ranging from 75 μM to 293 nM in two-fold dilutions. At 96 hours post-infection, cell monolayers were subjected to crystal violet staining (0.1% crystal violet in 20% ethanol), and the absorbance of dried plates at 560 nm determined. Virus-induced cytopathicity was then calculated according to the formula [% rel. CPE=100-(experimental-minimum)/(maximum-minimum)*100], with minimum referring to infected, vehicle-treated wells and maximum to mock-infected wells.
For test [2], the system named is MeV-Alaska. The test can be described thus: Virus yield reduction assay, MeV. The format is cell-based, measles virus. The settings on record: Measles morbillivirus.
The next test has as its system influenza A/WSN (H1N1). The test can be described thus: microbe, parasite or virus in culture. The test is classed as cell-based. The settings on record: read-out: EC50, reduction of virus yield (WSN).
The next test has as its system HPIV3. Description: Virus yield reduction assay, HPIV3. The format is cell-based, human parainfluenzavirus type 3. The note with it: Human respirovirus 3.

Consider `Cc1ccc(NC(=O)C(C)Sc2nc3ccccc3n2CC2CCN(C(C)c3ccc(F)cc3)CC2)c(Cl)c1` (stereo not drawn), for which, in the test with MeV-Alaska [1], the EC50 (in general, the concentration that produces a half-maximal response) worked out at 1170 nM.

As for `Cc1ccc(NC(=O)C(C)Sc2nc3ccccc3n2C2CCN(C(=O)OC(C)(C)C)CC2)c(Cl)c1` (stereo not drawn) [drawing 220], the EC50 in the test on MeV-Alaska [1] is 600 nM.

For `Cc1ccc(NC(=O)C(C)Sc2nc3ccccc3n2CC2CCN(C(=O)OC(C)(C)C)CC2)c(Cl)c1` (stereo not drawn), in the test on MeV-Alaska [1], the EC50 came to 1310 nM.

Consider `CC(Sc1nc2ccccc2n1-c1ccc(CCO)cc1)C(=O)Nc1ccccc1Cl` (stereo not drawn), for which the EC50 with MeV-Alaska [1] worked out at 4680 nM.

With `CC(Sc1nc2ccccc2n1-c1ccc(CC=O)cc1)C(=O)Nc1ccccc1Cl` (stereo not drawn), in the test on MeV-Alaska [1], the EC50 is 18800 nM.

As to `Cc1ccc(NC(=O)[C@@H](C)Sc2nc3ccccc3n2-c2cccc(CCN3CCOCC3)c2)c(Cl)c1`, the EC50 worked out at 212 nM with MeV-Alaska [2] and 108 nM with influenza A/WSN (H1N1).

As to `Cc1ccc(NC(=O)C(C)Sc2nc3ccccc3n2CC2CCNCC2)c(Cl)c1` (stereo not drawn), in the test with MeV-Alaska [1], the EC50 is more than 75000 nM.

As to `Cc1ccc(NC(=O)C(C)Sc2nc3ccccc3n2-c2ccc(CCN3CCOCC3)cc2)c(Cl)c1` (stereo not drawn), the EC50 was 111 nM with MeV-Alaska [2] and 43 nM in the test with influenza A/WSN (H1N1).

Consider `Cc1ccc(NC(=O)C(C)Sc2nc3ccccc3n2C2CCCN(CCO)C2)c(Cl)c1` (stereo not drawn), for which the concentration giving a half-maximal response (EC50) in the test on MeV-Alaska [1] is 10000 nM.

In the case of `Cc1ccc(NC(=O)C(C)Sc2nc3ccccc3n2-c2ccccc2CO)c(Cl)c1` (stereo not drawn), the EC50 in the test with MeV-Alaska [1] is 800 nM.

Regarding `COc1ccc(-n2c(S[C@H](C)C(=O)Nc3ccc(C)cc3Cl)nc3ccccc32)cc1`, the results for the EC50 in the test with MeV-Alaska [2] and in the test with influenza A/WSN (H1N1) were 879 nM and 157 nM, respectively.

As for `Cc1ccc(NC(=O)C(C)Sc2nc3ccccc3n2[C@H]2CCCC[C@@H]2O)c(Cl)c1` (stereo partly drawn), the EC50 in the test on MeV-Alaska [1] was found to be 872 nM.

Regarding `Cc1ccc(NC(=O)C(C)Sc2nc3ccccc3n2CCN2CCOCC2)c(Cl)c1` (stereo not drawn), the EC50 in the test with MeV-Alaska [1] is 4850 nM.

Regarding `CCN1CCCC1Cn1c(SC(C)C(=O)Nc2ccc(C)cc2Cl)nc2ccccc21` (stereo not drawn) [drawing 214], the EC50 in the test on MeV-Alaska [1] was 3580 nM.

`Cc1ccc(NC(=O)C(C)Sc2nc3ccccc3n2N2CCN(C)CC2)c(Cl)c1` (stereo not drawn): the EC50 in the test with MeV-Alaska [1] is more than 75000 nM.

As for `COCCN1CCCC(n2c(SC(C)C(=O)Nc3ccc(C)cc3Cl)nc3ccccc32)C1` (stereo not drawn), in the test on MeV-Alaska [1], the EC50 is 1000 nM.

`Cc1ccc(NC(=O)C(C)Sc2nc3ccccc3n2C2CCCCC2)c(Cl)c1` (stereo not drawn) [drawing 216]: in the test with MeV-Alaska [1], the EC50 was 290 nM.

Regarding `Cc1ccc(NC(=O)C(C)Sc2nc3ccccc3n2-c2ccc(CCNC3CCN(C(=O)OC(C)(C)C)CC3)cc2)c(Cl)c1` (stereo not drawn), the EC50 with MeV-Alaska [1] came to 4680 nM.

Take `Cc1ccc(NC(=O)C(C)Sc2nc3ccccc3n2C2CCNCC2)c(Cl)c1` (stereo not drawn) [drawing 219]: the EC50 in the test on MeV-Alaska [1] is more than 75000 nM.

Consider `Cc1ccc(NC(=O)C(C)Sc2nc3ccccc3n2CC2CCN(Cc3ccc(F)cc3)CC2)c(Cl)c1` (stereo not drawn), for which the EC50 in the test on MeV-Alaska [1] came to 1180 nM.

As for `Cc1ccc(NC(=O)[C@@H](C)Sc2nc3ccccc3n2-c2ccccc2CN2CCN(C)CC2)c(Cl)c1`, the EC50 in the test with MeV-Alaska [2] stood at 466 nM; in the test on influenza A/WSN (H1N1) it was 120 nM.

As to `Cc1ccc(NC(=O)C(C)Sc2nc3ccccc3n2C2CC[N+](C)(C)CC2)c(Cl)c1` (stereo not drawn), the EC50 in the test on MeV-Alaska [1] is more than 75000 nM.

With `CCN1CCN(CCn2c(SC(C)C(=O)Nc3ccc(C)cc3Cl)nc3ccccc32)CC1` (stereo not drawn), the EC50 in the test with MeV-Alaska [1] worked out at 18800 nM.

In the case of `Cc1ccc(NC(=O)C(C)Sc2nc3ccccc3n2-c2cccc(CCN3CCCC3)c2)c(Cl)c1` (stereo not drawn), in the test on MeV-Alaska [1], the EC50 worked out at 1660 nM.

Regarding `Cc1ccc(NC(=O)C(C)Sc2nc3ccccc3n2-c2cccc(CO)c2)c(Cl)c1` (stereo not drawn) [drawing 230], the EC50 in the test on MeV-Alaska [1] is 700 nM.

On to `Cc1ccc(NC(=O)C(C)Sc2nc3ccccc3n2-c2ccc(CCO)cc2)c(Cl)c1` (stereo not drawn) [drawing 224], for which the EC50 with MeV-Alaska [1] is 2500 nM.

Regarding `Cc1ccc(NC(=O)C(C)Sc2nc3ccccc3n2-c2cccc(CN3CCN(C)CC3)c2)c(Cl)c1` (stereo not drawn) [drawing 252], the EC50 in the test on MeV-Alaska [1] was 1280 nM.

As to `Cc1ccc(NC(=O)C(C)Sc2nc3ccccc3n2-c2ccc(N3CCOCC3)cc2)c(Cl)c1` (stereo not drawn) [drawing 232], the EC50 with MeV-Alaska [1] was 300 nM.

On to `Cc1ccc(NC(=O)[C@@H](C)Sc2nc3ccccc3n2-c2ccc(CCN3CCOCC3)cc2)c(Cl)c1`, for which the results for the EC50 with MeV-Alaska [2] and in the test on influenza A/WSN (H1N1) were 527 nM and 117 nM, respectively.

`Cc1ccc(NC(=O)C(C)Sc2nc3ccccc3n2-c2ccc(CC=O)cc2)c(Cl)c1` (stereo not drawn) [drawing 225]: the EC50 with MeV-Alaska [1] came to 8500 nM.

On to `Cc1ccc(NC(=O)[C@H](C)Sc2nc3ccccc3n2-c2ccc(CCN3CCOCC3)cc2)c(Cl)c1`, for which the EC50 with MeV-Alaska [2] (MeV) came out at 179 nM; in the test with influenza A/WSN (H1N1), 36 nM; in the test on HPIV3, 80 nM.

On to `Cc1ccc(NC(=O)C(C)Sc2nc3ccccc3n2-c2cccc(CCN3CCOCC3)c2)c(Cl)c1` (stereo not drawn), for which the EC50 in the test on MeV-Alaska [2] was 12.9 nM; in the test on influenza A/WSN (H1N1) it was 0.3 nM.

Turning to `CCN1CCC(Cn2c(SC(C)C(=O)Nc3ccc(C)cc3Cl)nc3ccccc32)CC1` (stereo not drawn), the EC50 in the test on MeV-Alaska [1] was more than 75000 nM.

As to `Cc1ccc(NC(=O)C(C)Sc2nc3ccccc3n2-c2cccc(CCN(C)C)c2)c(Cl)c1` (stereo not drawn), in the test on MeV-Alaska [1], the EC50 is 1220 nM.
